The text below walks through data of ChEMBL document CHEMBL4052712, “Design and optimization of highly-selective, broad spectrum fungal CYP51 inhibitors” (Bioorg Med Chem Lett, 2017).

As a reminder, the IC50 is the concentration needed to halve the response being measured. Higher therefore signals weaker potency in that assay.

The target in data set [1] is Cytochrome P450 3A4 (Homo sapiens, UniProt P08684). Kind of data set: Inhibition of CYP3A4 in human hepatocyte microsomes using testosterone substrate by HPLC/MS/MS method. Type of data set: ADME.
Data set [2] has as its target Lanosterol 14-alpha demethylase (Candida albicans (strain SC5314 / ATCC MYA-2876) (Yeast), UniProt P10613). Kind of data set: Inhibition of CYP51 in Candida albicans assessed as inhibition of microbe growth incubated for 48 hrs by CLSI M27-A3 guideline based method.
The target of data set [3] is T1, Lanosterol 14-alpha demethylase (Aspergillus) (UniProt B8NUK6+Q9P8R0+G4WW85). Kind of data set: Inhibition of CYP51 in Aspergillus fumigatus assessed as inhibition of microbe growth incubated for 48 to 168 hrs by CLSI M27-A3 guideline based method.
The subject of data set [4] is Cryptococcus neoformans. Kind of data set: Inhibition of CYP51 in Cryptococcus neoformans assessed as inhibition of microbe growth incubated for 48 hrs by CLSI M27-A3 guideline based method.
The target of data set [5] is Lanosterol 14-alpha demethylase (Candida glabrata (strain ATCC 2001 / BCRC 20586 / JCM 3761 / NBRC 0622 /NRRL Y-65 / CBS 138) (Yeast) (Nakaseomyces glabratus)) (UniProt P50859). As to the kind of experiment: Inhibition of CYP51 in Candida glabrata assessed as inhibition of microbe growth incubated for 48 hrs by CLSI M27-A3 guideline based method.
The target in data set [6] is T2, Lanosterol 14-alpha demethylase (Trichophyton rubrum (strain ATCC MYA-4607 / CBS 118892) (Athlete'sfoot fungus)) (UniProt F2SHH3).
T2 sequence (whole entry): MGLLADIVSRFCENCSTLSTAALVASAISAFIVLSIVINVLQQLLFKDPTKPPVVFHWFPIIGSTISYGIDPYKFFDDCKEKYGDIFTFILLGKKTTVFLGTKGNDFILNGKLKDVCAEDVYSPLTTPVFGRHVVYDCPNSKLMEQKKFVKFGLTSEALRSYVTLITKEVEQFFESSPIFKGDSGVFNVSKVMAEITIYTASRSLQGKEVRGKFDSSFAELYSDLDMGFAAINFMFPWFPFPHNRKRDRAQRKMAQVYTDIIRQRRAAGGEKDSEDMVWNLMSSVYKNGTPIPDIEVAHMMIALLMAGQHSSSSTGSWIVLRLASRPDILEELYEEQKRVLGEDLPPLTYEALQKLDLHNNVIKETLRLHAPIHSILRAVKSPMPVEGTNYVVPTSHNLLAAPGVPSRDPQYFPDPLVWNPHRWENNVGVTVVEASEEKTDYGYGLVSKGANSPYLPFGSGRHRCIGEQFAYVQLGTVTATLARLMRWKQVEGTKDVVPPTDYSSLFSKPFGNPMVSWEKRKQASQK
As to the kind of experiment: Inhibition of CYP51 in Trichophyton rubrum assessed as inhibition of microbe growth incubated for 48 hrs by CLSI M27-A3 guideline based method.

Data set [7] has as its target T1, Lanosterol 14-alpha demethylase (Aspergillus). Kind of data set: Inhibition of CYP51 in Aspergillus flavus assessed as inhibition of microbe growth incubated for 48 to 168 hrs by CLSI M27-A3 guideline based method.

The structures appear in SMILES notation. Calls of active or inactive are those of the source. No cut-off for these calls is given here. A value given as a limit tells only on which side of the number the result lay.

Cytochrome P450 3A4, sequence (P08684 whole entry): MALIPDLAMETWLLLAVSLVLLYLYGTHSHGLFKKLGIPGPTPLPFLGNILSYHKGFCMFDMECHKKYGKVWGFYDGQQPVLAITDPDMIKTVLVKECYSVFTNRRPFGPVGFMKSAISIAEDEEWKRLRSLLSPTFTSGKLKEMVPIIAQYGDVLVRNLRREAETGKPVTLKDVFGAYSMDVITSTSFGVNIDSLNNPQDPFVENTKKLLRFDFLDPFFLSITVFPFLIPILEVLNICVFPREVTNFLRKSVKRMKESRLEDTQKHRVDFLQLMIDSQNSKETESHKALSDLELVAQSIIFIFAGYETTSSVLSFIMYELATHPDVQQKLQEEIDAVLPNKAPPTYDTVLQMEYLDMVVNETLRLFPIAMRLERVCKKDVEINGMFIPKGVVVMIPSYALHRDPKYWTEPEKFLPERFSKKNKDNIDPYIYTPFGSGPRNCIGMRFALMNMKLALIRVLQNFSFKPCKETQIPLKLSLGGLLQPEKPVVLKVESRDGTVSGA
Lanosterol 14-alpha demethylase, sequence (P10613 whole entry): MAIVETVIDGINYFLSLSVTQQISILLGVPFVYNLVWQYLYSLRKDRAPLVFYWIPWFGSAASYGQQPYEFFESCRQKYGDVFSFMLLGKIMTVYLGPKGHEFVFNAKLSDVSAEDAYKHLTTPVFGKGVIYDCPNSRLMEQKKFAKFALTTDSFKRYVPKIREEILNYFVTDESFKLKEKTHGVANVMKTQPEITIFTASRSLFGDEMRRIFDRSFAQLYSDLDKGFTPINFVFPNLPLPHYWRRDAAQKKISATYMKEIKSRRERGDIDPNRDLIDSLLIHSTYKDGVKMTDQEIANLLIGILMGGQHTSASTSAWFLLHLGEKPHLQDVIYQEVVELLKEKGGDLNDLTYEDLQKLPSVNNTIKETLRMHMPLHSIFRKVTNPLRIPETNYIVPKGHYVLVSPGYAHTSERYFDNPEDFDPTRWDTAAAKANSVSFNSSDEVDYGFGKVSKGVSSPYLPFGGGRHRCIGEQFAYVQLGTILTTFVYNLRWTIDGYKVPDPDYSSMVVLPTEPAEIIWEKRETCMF
Lanosterol 14-alpha demethylase (Candida glabrata (strain ATCC 2001 / BCRC 20586 / JCM 3761 / NBRC 0622 /NRRL Y-65 / CBS 138) (Yeast) (Nakaseomyces glabratus)), sequence (P50859 whole entry): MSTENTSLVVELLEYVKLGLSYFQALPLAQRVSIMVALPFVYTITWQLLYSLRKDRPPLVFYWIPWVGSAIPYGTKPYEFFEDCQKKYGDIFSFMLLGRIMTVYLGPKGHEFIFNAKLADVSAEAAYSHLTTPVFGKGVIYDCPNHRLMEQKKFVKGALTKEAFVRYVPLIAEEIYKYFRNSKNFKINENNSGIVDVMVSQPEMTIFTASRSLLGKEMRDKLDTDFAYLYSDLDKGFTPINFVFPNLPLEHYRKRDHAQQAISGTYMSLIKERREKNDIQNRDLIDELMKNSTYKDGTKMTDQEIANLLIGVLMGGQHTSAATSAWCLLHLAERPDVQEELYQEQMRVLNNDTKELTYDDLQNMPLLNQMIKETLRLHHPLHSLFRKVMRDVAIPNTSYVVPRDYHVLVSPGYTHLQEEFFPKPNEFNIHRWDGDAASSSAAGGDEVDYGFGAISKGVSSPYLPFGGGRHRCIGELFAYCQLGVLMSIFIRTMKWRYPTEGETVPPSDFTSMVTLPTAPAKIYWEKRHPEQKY

Turning to `OC(Cn1cnnn1)(c1ccc(F)cc1F)C(F)(F)c1ccc(C#Cc2ccc(OCc3ccc(CC(F)F)cc3)cc2)cn1` (single isomer, unassigned; (+)) [listing 1 of 2 here], the IC50 in data set [1] was over 200 µM. Moreover, the MIC50 in data set [2] worked out at 0.031 µg/mL.

`OC(Cn1cnnn1)(c1ccc(F)cc1F)C(F)(F)c1ccc(C#Cc2ccc(OCc3ccc(CC(F)F)cc3)cc2)cn1` (single isomer, unassigned; (+)) [listing 2 of 2 here]: the MIC100 in data set [3] was found to be 2 µg/mL.

As to `N#Cc1cccc(COc2ccc(C#Cc3ccc(C(F)(F)C(O)(Cn4cnnn4)c4ccc(F)cc4F)nc3)cc2)c1` (centres undefined), the MIC100 in data set [3] is over 64 µg/mL. The same compound returned an IC50 in data set [1] of over 200 µM. Moreover, the MIC50 in data set [2] worked out at 0.016 µg/mL.

Turning to `OC(Cn1cnnn1)(c1ccc(F)cc1F)C(F)(F)c1ccc(C#Cc2cccc(F)c2)cn1` (centres undefined), the MIC100 in data set [3] is over 64 µg/mL. This compound also gave an IC50 in data set [1] of over 200 µM. The MIC50 in data set [2] is 0.004 µg/mL.

As to `OC(Cn1cnnn1)(c1ccc(F)cc1F)C(F)(F)c1ccc(C#Cc2ccc(F)cc2)cn1` (single isomer, unassigned; (-)), the MIC100 result in data set [3] is “inactive”.

On to `OC(Cn1cnnn1)(c1ccc(F)cc1F)C(F)(F)c1ccc(C#Cc2ccc(Cl)cc2)cn1` (centres undefined), for which the MIC100 in data set [3] was over 64 µg/mL. In data set [1], this compound yielded an IC50 of over 200 µM. In addition, in data set [2], the MIC50 was 0.004 µg/mL.

The compound `N#Cc1ccc(COc2ccc(C#Cc3ccc(C(F)(F)C(O)(Cn4cnnn4)c4ccc(F)cc4F)nc3)cc2)cc1F` (stereo in doubt; 8a) [listing 1 of 2 here] returned an IC50 in data set [1] of over 200 µM. Also, in data set [2], the MIC50 was 0.031 µg/mL.

As to `O[C@@](Cn1cnnn1)(c1ccc(F)cc1F)C(F)(F)c1ccc(-c2ccc(OCC(F)(F)F)cc2)cn1` [OTESECONAZOLE], the MIC100 in data set [3] is over 64 µg/mL. In data set [1], this compound had an IC50 of 65 µM. In addition, in data set [2], the MIC50 was under 0.001 µg/mL.

With `N#Cc1ccc(COc2ccc(C#Cc3ccc(C(F)(F)C(O)(Cn4cnnn4)c4ccc(F)cc4F)nc3)cc2)cc1F` (single isomer, unassigned; (+)) [listing 1 of 2 here], the IC50 in data set [1] was over 200 µM. In addition, in data set [2], the MIC50 stood at 0.004 µg/mL.

Take `OC(Cn1cnnn1)(c1ccc(F)cc1F)C(F)(F)c1ccc(C#Cc2ccc(NCC(F)(F)F)cc2)cn1` (centres undefined): the MIC100 in data set [3] was determined as 4 µg/mL. Further, the 50% inhibitory concentration (IC50) in data set [1] turned out to be 10 µM. Moreover, in data set [2], the MIC50 is under 0.001 µg/mL.

With `OC(Cn1cnnn1)(c1ccc(F)cc1F)C(F)(F)c1ccc(C#Cc2ccc(C(F)(F)F)cc2)cn1` (centres undefined), the MIC100 in data set [3] was over 64 µg/mL. The compound also had an IC50 in data set [1] of over 200 µM. For the same compound, the MIC50 in data set [2] was found to be 0.016 µg/mL.

In the case of `CNC(=O)c1ccc(COc2ccc(C#Cc3ccc(C(F)(F)C(O)(Cn4cnnn4)c4ccc(F)cc4F)nc3)cc2)cc1` (centres undefined), in data set [3], the MIC100 is over 64 µg/mL. In data set [1], this compound came in with an IC50 of 122 µM. Besides, in data set [2], the MIC50 is 0.031 µg/mL.

With `OC(Cn1cnnn1)(c1ccc(F)cc1F)C(F)(F)c1ccc(C#Cc2ccc(F)cc2)cn1` (single isomer, unassigned; (+)) [listing 1 of 2 here], the MIC100 in data set [3] was determined as 16 µg/mL.

Consider `N#Cc1ccc(COc2ccc(C#Cc3ccc(C(F)(F)C(O)(Cn4cnnn4)c4ccc(F)cc4F)nc3)cc2)cc1` (single isomer, unassigned; (+)), for which the figures for the MIC100 in data set [3] and in data set [7] were 0.25 µg/mL and 0.5 µg/mL, respectively. Besides, the MIC50 in data set [4] came to 0.0019 µg/mL; in data set [5], 0.12 µg/mL; in data set [6], 0.25 µg/mL.

As to `N#Cc1ccc(COc2ccc(C#Cc3ccc(C(F)(F)C(O)(Cn4cnnn4)c4ccc(F)cc4F)nc3)cc2)cc1F` (stereo in doubt; 8a) [listing 2 of 2 here], the MIC100 in data set [3] turned out to be 1 µg/mL.

`N#Cc1ccc(COc2ccc(C#Cc3ccc(C(F)(F)C(O)(Cn4cnnn4)c4ccc(F)cc4F)nc3)cc2)cc1` (stereo in doubt; 7f) [listing 1 of 2 here]: in data set [3], the MIC100 worked out at 8 µg/mL.

`OC(Cn1cnnn1)(c1ccc(F)cc1F)C(F)(F)c1ccc(C#Cc2ccc(F)cc2)cn1` (single isomer, unassigned; (+)) [listing 2 of 2 here] registered a concentration for half-maximal inhibition (IC50) in data set [1] of 198 µM. Further, in data set [2], the MIC50 is under 0.001 µg/mL.

In the case of `OC(Cn1cnnn1)(c1ccc(F)cc1F)C(F)(F)c1ccc(C#Cc2ccc(OCc3ccc(CC(F)F)cc3)cc2)cn1` (stereo in doubt; 7e) [listing 1 of 2 here], in data set [3], the MIC100 is 4 µg/mL.

Turning to `OC(Cn1cnnn1)(c1ccc(F)cc1F)C(F)(F)c1ccc(C#Cc2ccc(OCc3ccc(F)cc3)cc2)cn1` (centres undefined), in data set [3], the MIC100 worked out at 32 µg/mL. For the same compound, the IC50 in data set [1] was over 200 µM. Also, in data set [2], the MIC50 amounted to 0.0625 µg/mL.

In the case of `N#Cc1ccc(COc2ccc(C#Cc3ccc(C(F)(F)C(O)(Cn4cnnn4)c4ccc(Cl)cc4F)nc3)cc2)cc1` (centres undefined), the MIC100 in data set [3] is over 64 µg/mL. Further, the IC50 in data set [1] was over 200 µM. Further, the MIC50 in data set [2] was found to be 0.031 µg/mL.

Turning to `OC(Cn1cnnn1)(c1ccc(F)cc1F)C(F)(F)c1ccc(C#Cc2ccc(OCc3ccc(C(F)(F)F)cc3)cc2)cn1` (centres undefined), the MIC100 in data set [3] was over 64 µg/mL. In data set [1], this compound came in with an IC50 of over 200 µM. In data set [2], the MIC50 was 0.125 µg/mL.

In the case of `N#Cc1ccc(COc2ccc(C#Cc3ccc(C(F)(F)C(O)(Cn4cnnn4)c4cc(F)ccc4F)nc3)cc2)cc1` (centres undefined), the MIC100 in data set [3] was over 64 µg/mL. This compound also showed a concentration for half-maximal inhibition (IC50) in data set [1] of over 200 µM. The MIC50 in data set [2] was determined as 0.016 µg/mL.

For the compound `N#Cc1ccc(COc2ccc(C#Cc3ccc(C(F)(F)C(O)(Cn4cnnn4)c4ccc(F)cc4F)nc3)cc2)cc1F` (single isomer, unassigned; (+)) [listing 2 of 2 here], the MIC100 in data set [3] was 0.5 µg/mL.

Turning to `OC(Cn1cnnn1)(c1ccc(F)cc1F)C(F)(F)c1ccc(C#Cc2ccc(OCC(F)F)cc2)cn1` (centres undefined), the MIC100 in data set [3] is 64 µg/mL. The same compound yielded an IC50 in data set [1] of 60 µM. In addition, the MIC50 in data set [2] is under 0.001 µg/mL.

The compound `OC(Cn1cnnn1)(c1ccc(F)cc1F)C(F)(F)c1ccc(C#Cc2ccc(F)cc2)cn1` (stereo in doubt; 6a) [listing 1 of 2 here] had an IC50 in data set [1] of 100 µM.

As for `OC(Cn1cnnn1)(c1ccc(F)cc1F)C(F)(F)c1ccc(C#Cc2cccc(Cl)c2)cn1` (centres undefined), the MIC100 in data set [3] is over 64 µg/mL. In addition, in data set [1], the IC50 was over 200 µM. Also, the MIC50 in data set [2] is 0.031 µg/mL.

Regarding `N#Cc1ccc(COc2ccc(C#Cc3ccc(C(F)(F)C(O)(Cn4cnnn4)c4ccc(F)cc4F)nc3)cc2)c(F)c1` (centres undefined), the MIC100 in data set [3] was over 64 µg/mL. For the same compound, the IC50 in data set [1] was over 200 µM. Further, the MIC50 in data set [2] came to 0.16 µg/mL.

As for `OC(Cn1cnnn1)(c1ccc(F)cc1F)C(F)(F)c1ccc(C#Cc2ccc(F)cc2)cn1` (stereo in doubt; 6a) [listing 2 of 2 here], the MIC100 in data set [3] is over 64 µg/mL.

The compound `OC(Cn1cnnn1)(c1ccc(F)cc1F)C(F)(F)c1ccc(C#Cc2ccc(OCc3ccc(CC(F)F)cc3)cc2)cn1` (stereo in doubt; 7e) [listing 2 of 2 here] showed an IC50 in data set [1] of over 200 µM. In addition, in data set [2], the MIC50 is 0.0625 µg/mL.

Take `N#Cc1ccc(COc2ccc(C#Cc3ccc(C(F)(F)C(O)(Cn4cnnn4)c4ccc(F)cc4F)nc3)cc2)cc1` (stereo in doubt; 7f) [listing 2 of 2 here]: the IC50 in data set [1] is over 200 µM. Besides, the MIC50 in data set [2] worked out at 0.031 µg/mL.

As to `OC(Cn1cnnn1)(c1ccc(F)cc1F)C(F)(F)c1ccc(C#Cc2ccc(OCc3ccc(OC(F)(F)F)cc3)cc2)cn1` (centres undefined), the MIC100 in data set [3] is over 64 µg/mL. For the same compound, the IC50 in data set [1] was over 200 µM. Also, the MIC50 in data set [2] turned out to be 0.25 µg/mL.

With `N#Cc1ccc(OCc2ccc(C#Cc3ccc(C(F)(F)C(O)(Cn4cnnn4)c4ccc(F)cc4F)nc3)cc2)cc1` (centres undefined), the MIC100 in data set [3] was over 64 µg/mL. The same compound displayed an IC50 in data set [1] of over 200 µM. In addition, the MIC50 in data set [2] was 0.031 µg/mL.
